# Experimental data from patent US20090181898A1, “ABUSE-RESISTANT A[…]” (SHIRE LLC, priority 2002, published 2009).
# Where a name gives a salt, the structure may show the parent alone.
# Legend:
# [1] = Oral bioavailability of peptide amphetamine conjugates (HCl salts, ELISA); conditions: rats
# [2] = Intranasal bioavailability of peptide amphetamine conjugates (HCl salts, ELISA); conditions: for Percent AUC (bioavailability relative to Amphetamine) / Percent Cmax (relative to Amphetamine): Intranasal, rats
# [3] = Kitchen tests: water, acid (vinegar), base (baking powder, baking soda), boiling; type: physicochemical; conditions: for free amphetamine released: heated to boiling for 20-60 minutes
# Protocol: “Kitchen tests” were performed in anticipation of attempts by illicit chemists to release free amphetamine from the amphetamine conjugate.
# [4] = Intravenous bioavailability of peptide amphetamine conjugates (HCl salts, ELISA); conditions: rats
# rats [5] = conditions: cited from earlier work
# [6] = Oral bioavailability at escalating doses (LC/MS/MS); conditions: rat, oral
# rats [7] = test: Single oral dose toxicity; type: in vivo, Sprague Dawley rats; conditions: rat, single oral dose
# Protocol: Three male and three female Sprague Dawley rats per group were given a single oral administration of L-lysine-d-amphetamine at 0.1, 1.0, 10, 60, 100, or 1000 mg/kg (Table 53).
# Animals found dead, or sacrificed moribund were necropsied and discarded.
# [8] = Stability under basic conditions
# children with ADHD = test: Pediatric efficacy trial, ADHD-RS and CPRS, parallel-group, four weeks; conditions: children 6-12, 30, 50 or 70 mg once daily
# [9] = test system: enzyme cocktails (pepsin, pancreatin, pronase, esterase, Omnigest, VitälZym); test: Stability under treatment with commercially available enzyme cocktails; type: in vitro ADME; conditions: 37° C.
# Protocol: For acids and bases (Table 59), 10 mg of Lys-Amp was mixed with 2 mL of each stock solution, and the solution was shaken at 20° C. For enzyme treatment (Table 60), 10 mg Lys-Amp was mixed with 5 mL of each enzyme cocktail, and the solution was shaken at 37° C. […] Many of the commercially available reagents also contained various solvents and/or surfactants.
# Unless otherwise indicated, solutions were used directly from the container and were combined with neat Lys-Amp solid. Lewis Red Devil® Lye, Enforcer Drain Care® Septic Treatment, and Rid-X® Septic Treatment were prepared as saturated solutions in H2O. Enzymes used were purchased from Sigma and directly dissolved in water (3 mg/mL pepsin, 10 mg/mL pancreatin, 3 mg/mL pronase, 3 mg/mL esterase), while enzyme-containing nutraceuticals such as Omnigest® and VitälZym® were first either crushed or opened (1 tablet or capsule per 5 mL of H2O).
compound,measurement,setting,value
[2H]OC(=O)CC[C@H](N)C(=O)NC(C)Cc1ccccc1 (some centres unmarked) [E-Amp],Percent AUC (bioavailability relative to Amphetamine),[1],73%
same,Percent Cmax (relative to Amphetamine),[1],95%
[2H]OC(=O)CC[C@H](NC(=O)[C@@H](N)CCC(=O)O)C(=O)NC(C)Cc1ccccc1 (some centres unmarked) [EE-Amp],Percent AUC (bioavailability relative to Amphetamine),[1],26%
same,Percent Cmax (relative to Amphetamine),[1],74%
[2H]OC(=O)CC[C@H](NC(=O)[C@H](CCC(=O)O)NC(=O)[C@@H](N)CCC(=O)O)C(=O)NC(C)Cc1ccccc1 (some centres unmarked) [EEE-Amp],Percent AUC (bioavailability relative to Amphetamine),[1],69%
same,Percent Cmax (relative to Amphetamine),[1],53%
same,Percent AUC (bioavailability relative to Amphetamine),[2],10%
same,Percent Cmax (relative to Amphetamine),[2],10%
[2H]N(C(=O)[C@H](CCC(=O)O)NC(=O)[C@@H](N)CCC(=O)O)[C@@H](Cc1ccccc1)C(=O)NC(C)Cc1ccccc1 (some centres unmarked) [EEF-Amp],Percent AUC (bioavailability relative to Amphetamine),[1],42%
same,Percent Cmax (relative to Amphetamine),[1],73%
same,Percent AUC (bioavailability relative to Amphetamine),[2],39%
same,Percent Cmax (relative to Amphetamine),[2],29%
[2H]N(C(=O)[C@@H](N)Cc1ccccc1)[C@@H](Cc1ccccc1)C(=O)NC(C)Cc1ccccc1 (some centres unmarked) [FF-Amp],Percent AUC (bioavailability relative to Amphetamine),[1],27%
same,Percent Cmax (relative to Amphetamine),[1],64%
CC(Cc1ccccc1)NC(=O)CN (centres unmarked) [G-Amp],Percent AUC (bioavailability relative to Amphetamine),[1],81%
same,Percent Cmax (relative to Amphetamine),[1],78%
same,Percent AUC (bioavailability relative to Amphetamine),[2],65%
same,Percent Cmax (relative to Amphetamine),[2],53%
[2H]N(CC(=O)NC(C)Cc1ccccc1)C(=O)CN (centres unmarked) [GG-Amp],Percent AUC (bioavailability relative to Amphetamine),[1],79%
same,Percent Cmax (relative to Amphetamine),[1],88%
same,Percent AUC (bioavailability relative to Amphetamine),[2],88%
same,Percent Cmax (relative to Amphetamine),[2],85%
"CC(Cc1ccccc1)NC(=O)CNC(=O)CNC(=O)CN (centres unmarked) [Gly3-Amp, 2-amino-N-({[(1-methyl-2-phenyl-ethylcarbornyl)-methyl]-carbornyl}-methyl)-acetamide]",free amphetamine released,[3]; Baking Powder,0%
same,free amphetamine released,[3]; Baking Soda,0%
same,free amphetamine released,[3]; Tap Water,0%
same,free amphetamine released,[3]; Vinegar,0%
same,Release of free amphetamine in kitchen tests,"[3]; water, vinegar, baking powder, baking soda, boiling 20-60 minutes",no detectable free amphetamine
CC(Cc1ccccc1)NC(=O)C(O)C(O)C(O)C(O)CO (centres unmarked) [Gulonate-Amp],Percent AUC (bioavailability relative to Amphetamine),[4],3%
same,Percent Cmax (relative to Amphetamine),[4],5%
same,Percent AUC (bioavailability relative to Amphetamine),[1],1%
same,Percent Cmax (relative to Amphetamine),[1],1%
same,Percent AUC (bioavailability relative to Amphetamine),[2],0.4%
same,Percent Cmax (relative to Amphetamine),[2],0.5%
[2H]N[C@@H](Cc1c[nH]cn1)C(=O)NC(C)Cc1ccccc1 (some centres unmarked) [H-Amp],Percent AUC (bioavailability relative to Amphetamine),[1],16%
same,Percent Cmax (relative to Amphetamine),[1],21%
same,Percent AUC (bioavailability relative to Amphetamine),[2],22%
same,Percent Cmax (relative to Amphetamine),[2],42%
[2H]N[C@H](C(=O)NC(C)Cc1ccccc1)[C@@H](C)CC (some centres unmarked) [I-Amp],Percent AUC (bioavailability relative to Amphetamine),[1],71%
same,Percent Cmax (relative to Amphetamine),[1],52%
same,Percent AUC (bioavailability relative to Amphetamine),[2],73%
same,Percent Cmax (relative to Amphetamine),[2],97%
[2H]N(CC(=O)NC(C)Cc1ccccc1)C(=O)[C@@H](N)CCCCN (some centres unmarked) [KG-Amp],Percent AUC (bioavailability relative to Amphetamine),[1],69%
same,Percent Cmax (relative to Amphetamine),[1],71%
same,Percent AUC (bioavailability relative to Amphetamine),[2],13%
same,Percent Cmax (relative to Amphetamine),[2],12%
[2H]N[C@@H](CC(C)C)C(=O)NC(C)Cc1ccccc1 (stereo partly drawn) [L-Amp],Percent AUC (bioavailability relative to Amphetamine),[1],65%
same,Percent Cmax (relative to Amphetamine),[1],81%
[2H]OC(=O)CC[C@H](NC(=O)[C@@H](N)CC(C)C)C(=O)NC(C)Cc1ccccc1 (some centres unmarked) [LE-Amp],Percent AUC (bioavailability relative to Amphetamine),[1],40%
same,Percent Cmax (relative to Amphetamine),[1],28%
same,Percent AUC (bioavailability relative to Amphetamine),[2],6%
same,Percent Cmax (relative to Amphetamine),[2],6%
[2H]N1CCC[C@H]1C(=O)NC(C)Cc1ccccc1 (some centres unmarked) [P-Amp],Percent AUC (bioavailability relative to Amphetamine),[1],6%
same,Percent Cmax (relative to Amphetamine),[1],3%
same,Percent AUC (bioavailability relative to Amphetamine),[2],2%
same,Percent Cmax (relative to Amphetamine),[2],2%
CC(Cc1ccccc1)NC(=O)C1CCCN1C(=O)C1CCCN1 (centres unmarked) [PP-Amp],Percent AUC (bioavailability relative to Amphetamine),[1],61%
same,Percent Cmax (relative to Amphetamine),[1],80%
same,Percent AUC (bioavailability relative to Amphetamine),[2],47%
same,Percent Cmax (relative to Amphetamine),[2],43%
"CC(Cc1ccccc1)NC(=O)C(N)Cc1ccccc1 (centres unmarked) [Phe-Amp, 2-amino-3-phenylpropanoic acid-(1-methyl-2-phenylethyl)-amide]",Bioavailability by parenteral routes of administration,"[2]; rat, parenteral routes",little or no decrease
[2H]N[C@@H](Cc1ccc(O)cc1)C(=O)NC(C)Cc1ccccc1 (some centres unmarked) [Y-Amp],Percent AUC (bioavailability relative to Amphetamine),[1],25%
same,Percent Cmax (relative to Amphetamine),[1],20%
same,Percent AUC (bioavailability relative to Amphetamine),[2],21%
same,Percent Cmax (relative to Amphetamine),[2],20%
C[C@H](N)Cc1ccccc1 [d-amphetamine sulfate],Oral LD50,rats [5],96.8 mg/kg
same,F of d-amphetamine,[6]; 12 mg/kg,101%
same,F of d-amphetamine,[6]; 60 mg/kg,223%
L-lysine-d-amphetamine diHCl,"Observable signs of toxicity, Groups 4-6",rats [7],increased motor activity within two hours post-dose
same,"Observable signs of toxicity, Groups 1-3",rats [7]; Days 1-7,no observable signs
L-lysine-d-amphetamine dimesylate,Maximum d-amphetamine release,[8]; 3M sodium hydroxide,25.4%
same,d-amphetamine release,[8]; all other basic conditions,less than 3%
same,"Signs and symptoms of ADHD (ADHD-RS, CPRS) compared to placebo",children with ADHD,Significant improvements
same,d-amphetamine released,"[9]; Cellfood ®, 1 h",0 w.t. % d-amphetamine
same,d-amphetamine released,"[9]; Cellfood ®, 24 h",0 w.t. % d-amphetamine
same,d-amphetamine released,"[9]; Drano ® Max with Bacteria, 1 h",0 w.t. % d-amphetamine
same,d-amphetamine released,"[9]; Drano ® Max with Bacteria, 24 h",0 w.t. % d-amphetamine
same,d-amphetamine released,"[9]; Enforcer ® Septic, 1 h",0 w.t. % d-amphetamine
same,d-amphetamine released,"[9]; Enforcer ® Septic, 24 h",0 w.t. % d-amphetamine
same,d-amphetamine released,"[9]; Esterase 3 mg/mL, 1 h",0 w.t. % d-amphetamine
same,d-amphetamine released,"[9]; Esterase 3 mg/mL, 24 h",19 w.t. % d-amphetamine
same,d-amphetamine released,"[9]; Omnigest ®, 1 h",0 w.t. % d-amphetamine
same,d-amphetamine released,"[9]; Omnigest ®, 24 h",0 w.t. % d-amphetamine
same,d-amphetamine released,"[9]; Pancreatin 10 mg/mL, 1 h",0 w.t. % d-amphetamine
same,d-amphetamine released,"[9]; Pancreatin 10 mg/mL, 24 h",0 w.t. % d-amphetamine
same,d-amphetamine released,"[9]; Pepsin 3 mg/mL, 1 h",0 w.t. % d-amphetamine
same,d-amphetamine released,"[9]; Pepsin 3 mg/mL, 24 h",0 w.t. % d-amphetamine
same,d-amphetamine released,"[9]; Pronase 3 mg/mL, 1 h",0 w.t. % d-amphetamine
same,d-amphetamine released,"[9]; Pronase 3 mg/mL, 24 h",24 w.t. % d-amphetamine
same,d-amphetamine released,"[9]; Rid-X ® Septic, 1 h",0 w.t. % d-amphetamine
same,d-amphetamine released,"[9]; Rid-X ® Septic, 24 h",0 w.t. % d-amphetamine
same,d-amphetamine released,"[9]; VitälZym ®, 1 h",0 w.t. % d-amphetamine
same,d-amphetamine released,"[9]; VitälZym ®, 24 h",0 w.t. % d-amphetamine
